Data reported in patent US20120083522A1, “MODULATION OF INFLAMMATORY RESPONSES BY FACTOR XI” (Isis Pharmaceuitcals, inc., priority 2009, published 2012).
In the oligonucleotide strings, read from the 5' end, every base follows the letter of its sugar. An asterisk marks phosphorothioate; unmarked linkages are phosphodiester. Other units and linkages are bracketed, terminal groups are in braces. A string of capitals states the bases alone. e = 2'-O-(2-methoxyethyl) (MOE); [5mC] = 5-methylcytosine; d = 2'-deoxy (DNA)

Experiments:
human Factor XI mRNA [1] = test: Dose-dependent inhibition in HepG2 cells, electroporation (Example 4); assay type: cell-based; settings: 16 hours
Procedure: (§1) The gapmers were also transfected via electroporation and their dose dependent inhibition of human Factor XI mRNA was measured. Cells were plated at a density of 20,000 cells per well and transfected via electroporation with 0.7 μM, 2.2 μM, 6.7 μM, and 20 μM concentrations of antisense oligonucleotide, as specified in Table 10. After a treatment period of approximately 16 hours, RNA was isolated from the cells and Factor XI mRNA levels were measured by quantitative real-time PCR. Human Factor XI primer probe set RTS 2966 was used to measure mRNA levels. Factor XI mRNA levels were adjusted according to total RNA content, as measured by RIBOGREEN®. Results are presented as percent inhibition of Factor XI, relative to untreated control cells.

human Factor XI mRNA [2] = test: Antisense inhibition in HepG2 cells by microwalk gapmers, 75 nM, lipofectin (Example 3); assay type: cell-based; settings: HepG2 cells, 75 nM, oligonucleotides targeted to nucleobases 1275 to 1318 of SEQ ID NO: 1
Procedure, shortened: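 HepG2 cells (10,000 per well) were transfected with 75 nM gapmer using lipofectin and treated for about 24 h. Factor XI mRNA was quantified by real-time PCR, normalized to RiboGreen total RNA and expressed as percent inhibition versus untreated controls.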

human Factor XI mRNA [3] = test: Dose-dependent inhibition in HepG2 cells, lipofectin (Example 4); assay type: cell-based; settings: 16 hours
Procedure: as §1, with “Cells” for “The gapmers were also transfected via electroporation and their dose dependent inhibition of human Factor XI mRNA was measured. Cells”, “10,000” for “20,000”, “using lipofectin reagent” for “via electroporation”, “9.375 nM, 18.75 nM, 37.5 nM” for “0.7 μM, 2.2 μM, 6.7 μM,”, “75 nM” for “20 μM”, “9.” for “10.”

[4] = Cynomolgus monkeys: hematology assays (Example 29); assay type: in vivo
Procedure: (§2) Groups, each consisting of two male and three female monkeys, were injected subcutaneously with ISIS 416838, ISIS 416850, ISIS 416858, ISIS 416864, or ISIS 417002 in escalating doses. Antisense oligonucleotide was administered to the monkeys at 5 mg/kg three times per a week for week 1; 5 mg/kg twice per week for weeks 2 and 3; 10 mg/kg three times per week for week 4; 10 mg/kg twice per week for weeks 5 and 6; 25 mg/kg three times per week for week 7; and 25 mg/kg twice per week for weeks 8, 9, 10, 11, and 12. One control group, consisting of two male and three female monkeys, was injected subcutaneously with PBS according to the same dosing regimen. An additional experimental group, consisting of two male and three female monkeys, was injected subcutaneously with ISIS 416850 in a chronic, lower dose regimen. Antisense oligonucleotide was administered to the monkeys at 5 mg/kg three times per week for week 1; 5 mg/kg twice per week for week 2 and 3; 10 mg/kg three times per week for week 4; and 10 mg/kg twice per week for weeks 5 to 12. Body weights were measured weekly. Blood samples were collected 14 days and 5 days before the start of treatment and subsequently once per week for Factor XI protein activity analysis in plasma and measurement of various hematologic factors. On day 85, the monkeys were euthanized by exsanguination while under deep anesthesia, and organs harvested for further analysis.
The ISIS oligonucleotide, ISIS 416850, given with the chronic dose regimen is distinguished from the other oligonucleotides with an asterisk (*).

Factor XI protein = test: Cynomolgus monkeys: plasma Factor XI protein ELISA (Example 29); assay type: in vivo; settings: escalating doses 5, 10, 25 mg/kg s.c.
Procedure: as §2
Plasma samples from all monkey groups taken on different days were analyzed by a sandwich-style ELISA assay (Affinity Biologicals Inc.) using an affinity-purified polyclonal anti-Factor XI antibody as the capture antibody and a peroxidase-conjugated polyclonal anti-Factor XI antibody as the detecting antibody. Monkey plasma was diluted 1:50 for the assay. Peroxidase activity was expressed by incubation with the substrate o-phenylenediamine. The color produced was quantified using a microplate reader at 490 nm and was considered to be proportional to the concentration of Factor XI in the samples.
The results are presented in Table 122, expressed as percentage reduction relative to that of the PBS control.

[5] = Cynomolgus monkeys: body and organ weights (Example 29); assay type: in vivo; settings: for Kidney weight / Liver weight / Spleen weight: after euthanasia; for Body weight: escalating doses 5, 10, 25 mg/kg s.c.
Procedure: as §2
Body weights were taken once weekly throughout the dosing regimen. […] Organ weights were taken after the animals were euthanized and livers, kidneys and spleens were harvested and weighed. […] The ISIS oligonucleotide, ISIS 416850, given with the chronic dose regimen is distinguished from the other oligonucleotides with an asterisk (*).

417000 (antisense eT*eG*d[5mC]*dA*d[5mC]*dA*dG*dT*dT*dT*d[5mC]*dT*dG*dG*d[5mC]*eA*eG*eG*e[5mC]*e[5mC]) [compound 417000]
percent inhibition of Factor XI mRNA, relative to untreated control cells (human Factor XI mRNA [1]; 0.7 μM): 46% | percent inhibition of Factor XI mRNA, relative to untreated control cells (human Factor XI mRNA [1]; 2.2 μM): 73% | percent inhibition of Factor XI mRNA, relative to untreated control cells (human Factor XI mRNA [1]; 6.7 μM): 76% | percent inhibition of Factor XI mRNA, relative to untreated control cells (human Factor XI mRNA [1]; 20 μM): 89% | % inhibition of human Factor XI mRNA levels (human Factor XI mRNA [2]): 89% | percent inhibition of Factor XI mRNA, relative to untreated control cells (human Factor XI mRNA [3]; 9.375 nM): 35% | percent inhibition of Factor XI mRNA, relative to untreated control cells (human Factor XI mRNA [3]; 18.75 nM): 47% | percent inhibition of Factor XI mRNA, relative to untreated control cells (human Factor XI mRNA [3]; 37.5 nM): 58% | percent inhibition of Factor XI mRNA, relative to untreated control cells (human Factor XI mRNA [3]; 75 nM): 70%

ISIS 416838: gapmer of Table 6 (antisense eG*e[5mC]*eA*eA*e[5mC]*d[5mC]*dG*dG*dG*dA*dT*dG*dA*dT*dG*eA*eG*eT*eG*e[5mC])
platelet count ([4]; day 8): 387000 µL⁻¹ | platelet count ([4]; day 15): 387000 µL⁻¹ | platelet count ([4]; day 22): 319000 µL⁻¹ | platelet count ([4]; day 29): 337000 µL⁻¹ | platelet count ([4]; day 36): 370000 µL⁻¹ | platelet count ([4]; day 43): 365000 µL⁻¹ | platelet count ([4]; day 50): 372000 µL⁻¹ | platelet count ([4]; day 57): 371000 µL⁻¹ | platelet count ([4]; day 64): 358000 µL⁻¹ | platelet count ([4]; day 71): 365000 µL⁻¹ | platelet count ([4]; day 78): 348000 µL⁻¹ | platelet count ([4]; day 85): 344000 µL⁻¹ | platelet count ([4]; day −5): 425000 µL⁻¹ | platelet count ([4]; day −14): 377000 µL⁻¹ | Inhibition of Factor XI protein relative to the PBS control (Factor XI protein; day 8): 3% | Inhibition of Factor XI protein relative to the PBS control (Factor XI protein; day 15): 4% | Inhibition of Factor XI protein relative to the PBS control (Factor XI protein; day 22): 5% | Inhibition of Factor XI protein relative to the PBS control (Factor XI protein; day 29): 8% | Inhibition of Factor XI protein relative to the PBS control (Factor XI protein; day 36): 11% | Inhibition of Factor XI protein relative to the PBS control (Factor XI protein; day 43): 5% | Inhibition of Factor XI protein relative to the PBS control (Factor XI protein; day 50): 8% | Inhibition of Factor XI protein relative to the PBS control (Factor XI protein; day 57): 10% | Inhibition of Factor XI protein relative to the PBS control (Factor XI protein; day 64): 11% | Inhibition of Factor XI protein relative to the PBS control (Factor XI protein; day 71): 12% | Inhibition of Factor XI protein relative to the PBS control (Factor XI protein; day 78): 10% | Inhibition of Factor XI protein relative to the PBS control (Factor XI protein; day 85): 10% | Inhibition of Factor XI protein relative to the PBS control (Factor XI protein; day −5 (before treatment)): 0% | Inhibition of Factor XI protein relative to the PBS control (Factor XI protein; day −14 (before treatment)): 0% | Kidney weight [5]: 12 g | Liver weight [5]: 63 g | Spleen weight [5]: 5 g | Body weight ([5]; day 1): 2720 g | Body weight ([5]; day 8): 2592 g | Body weight ([5]; day 15): 2642 g | Body weight ([5]; day 22): 2702 g | Body weight ([5]; day 29): 2689 g | Body weight ([5]; day 36): 2708 g | Body weight ([5]; day 43): 2700 g | Body weight ([5]; day 50): 2731 g | Body weight ([5]; day 57): 2737 g | Body weight ([5]; day 64): 2746 g | Body weight ([5]; day 71): 2869 g | Body weight ([5]; day 78): 2766 g

ISIS 416864: gapmer of Table 8 (antisense eG*eG*e[5mC]*eA*eG*d[5mC]*dG*dG*dA*d[5mC]*dG*dG*d[5mC]*dA*dT*eT*eG*eG*eT*eG)
platelet count ([4]; day 8): 438000 µL⁻¹ | platelet count ([4]; day 15): 439000 µL⁻¹ | platelet count ([4]; day 22): 364000 µL⁻¹ | platelet count ([4]; day 29): 397000 µL⁻¹ | platelet count ([4]; day 36): 428000 µL⁻¹ | platelet count ([4]; day 43): 351000 µL⁻¹ | platelet count ([4]; day 50): 419000 µL⁻¹ | platelet count ([4]; day 57): 409000 µL⁻¹ | platelet count ([4]; day 64): 383000 µL⁻¹ | platelet count ([4]; day 71): 394000 µL⁻¹ | platelet count ([4]; day 78): 366000 µL⁻¹ | platelet count ([4]; day 85): 387000 µL⁻¹ | platelet count ([4]; day −5): 456000 µL⁻¹ | platelet count ([4]; day −14): 434000 µL⁻¹ | Inhibition of Factor XI protein relative to the PBS control (Factor XI protein; day 8): 7% | Inhibition of Factor XI protein relative to the PBS control (Factor XI protein; day 15): 9% | Inhibition of Factor XI protein relative to the PBS control (Factor XI protein; day 22): 7% | Inhibition of Factor XI protein relative to the PBS control (Factor XI protein; day 29): 10% | Inhibition of Factor XI protein relative to the PBS control (Factor XI protein; day 36): 9% | Inhibition of Factor XI protein relative to the PBS control (Factor XI protein; day 43): 9% | Inhibition of Factor XI protein relative to the PBS control (Factor XI protein; day 50): 10% | Inhibition of Factor XI protein relative to the PBS control (Factor XI protein; day 57): 7% | Inhibition of Factor XI protein relative to the PBS control (Factor XI protein; day 64): 5% | Inhibition of Factor XI protein relative to the PBS control (Factor XI protein; day 71): 10% | Inhibition of Factor XI protein relative to the PBS control (Factor XI protein; day 78): 9% | Inhibition of Factor XI protein relative to the PBS control (Factor XI protein; day 85): 8% | Inhibition of Factor XI protein relative to the PBS control (Factor XI protein; day −5 (before treatment)): 5% | Inhibition of Factor XI protein relative to the PBS control (Factor XI protein; day −14 (before treatment)): 0% | Kidney weight [5]: 14 g | Liver weight [5]: 53 g | Spleen weight [5]: 5 g | Body weight ([5]; day 1): 2890 g | Body weight ([5]; day 8): 2784 g | Body weight ([5]; day 15): 2817 g | Body weight ([5]; day 22): 2857 g | Body weight ([5]; day 29): 2863 g | Body weight ([5]; day 36): 3327 g | Body weight ([5]; day 43): 3355 g | Body weight ([5]; day 50): 3408 g | Body weight ([5]; day 57): 3387 g | Body weight ([5]; day 64): 3384 g | Body weight ([5]; day 71): 2942 g | Body weight ([5]; day 78): 2822 g
